13 compounds from patent publication US9388162B2, “Substituted morphinans and the use thereof” (Purdue Pharma L.P., priority 2012, dated 2016) can be followed below.

In one assay the target is μ-opioid receptors (Homo sapiens (Human), UniProt P35372). Put plainly: μ-opioid receptor [35S]GTPγS functional assay, U-2 OS cells. The format is biochemical. The note with it: μ GTP; for EC50: read-out: Activity Response μ EC50 (nM) [mean ± SEM]; for Emax: relative to DAMGO, read-out: Activity Response μ Emax (%). How it is done: [^35S]GTPγS functional assays were conducted using freshly thawed μ-receptor membranes prepared from a cell line expressing recombinant μ opioid receptor in a HEK-293, CHO or U-2 OS cell background or purchased from a commercial source (Perkin Elmer, Shelton, Conn.; or DiscovRx, Fremont, Calif.). Assay reactions were prepared by sequentially adding the following reagents to binding buffer (100 mM NaCl, 10 mM MgCl2, 20 mM HEPES, pH 7.4) on ice (final concentrations indicated): membrane protein (0.026 mg/mL), saponin ([…]), GDP ([…]) and [^35S]GTPγS (0.20 nM; Perkin Elmer, Shelton, Conn.). The prepared membrane solution (190 μl/well) was transferred to 96-shallow well polypropylene plates containing 10 μl of 20× concentrated stock solutions of the agonist [D-Ala^2, N-methyl-Phe^4 Gly-ol^5]-enkephalin (DAMGO) prepared in dimethyl sulfoxide (DMSO). Plates were incubated for 30 min at about 25° C. with shaking. Reactions were terminated by rapid filtration onto 96-well Unifilter GF/B filter plates (Perkin Elmer, Shelton, Conn.) using a 96-well tissue harvester (Perkin Elmer, Shelton, Conn.) followed by three filtration washes with 200 μl of ice-cold wash buffer (10 mM NaH2PO4, 10 mM Na2HPO4, pH 7.4). Filter plates were subsequently dried at 50° C. for 2-3 hours. BetaScint scintillation cocktail (Perkin Elmer, Shelton, Conn.) was added (50 μl/well) and plates were counted using a Packard Top-Count for 1 min/well. Data were analyzed using the sigmoidal dose-response curve fitting functions in GraphPad PRISM v. 3.0, or an in-house function for non-linear, sigmoidal dose-response curve-fitting.
μ GTP EC50 is the concentration of a compound providing 50% of the maximal response for the compound at a μ-opioid receptor.
μ GTP Emax (%) is the maximal effect elicited by a compound relative to the effect elicited by DAMGO, a standard μ agonist. Generally, the μ GTP Emax (%) value measures the efficacy of a compound to treat or prevent pain or other Conditions.
The following tables provide results on the efficacy of binding and activity response of exemplified Compounds of the Invention at the μ- and κ-opioid receptors. In TABLE 3, binding affinity of certain Compounds of the Invention to the μ- and κ-opioid receptors was determined as described above. In TABLE 4, activity response of certain Compounds of the Invention to the μ- and κ-opioid receptors was determined as described above for functional assays using HEK-293 cells. In TABLE 5, activity response of certain Compounds of the Invention to the μ- and κ-opioid receptors was determined as described above using U-2 OS cells.
On the technique in general: Binding of GTPγS marks nucleotide exchange on a G protein.

Another assay deals with κ opioid receptor (Homo sapiens (Human), UniProt P41145). The assay is described as follows: κ-opioid receptor [35S]GTPγS functional assay, U-2 OS cells. The settings on record: κ GTP; for EC50: read-out: Activity Response κ EC50 (nM) [mean ± SEM]; for Emax: relative to U69,593, read-out: Activity Response κ Emax (%). In kind it is biochemical. How it is done:
Membranes from HEK-293 cells, CHO or U-2 OS cells expressing the recombinant human kappa opioid receptor (κ) were prepared by lysing cells in ice cold hypotonic buffer (2.5 mM MgCl2, 50 mM HEPES, pH 7.4) (10 mL/10 cm dish) followed by homogenization with a tissue grinder/Teflon pestle. Membranes were collected by centrifugation at 30,000×g for 15 min at 4° C. and pellets were resuspended in hypotonic buffer to a final concentration of 1-3 mg/mL. Protein concentrations were determined using the BioRad protein assay reagent with bovine serum albumen as standard. Aliquots of κ receptor membranes were stored at −80° C.
Functional [^35S]GTPγS binding assays were conducted as follows. κ opioid receptor membrane solution was prepared by sequentially adding final concentrations of 0.026 μg/μl κ membrane protein (in-house), 10 μg/mL saponin, 3 μM GDP and 0.20 nM [^35S]GTPγS to binding buffer (100 mM NaCl, 10 mM MgCl2, 20 mM HEPES, pH 7.4) on ice. The prepared membrane solution (190 μl/well) was transferred to 96-shallow well polypropylene plates containing 10 μl of 20× concentrated stock solutions of agonist prepared in DMSO. Plates were incubated for 30 min at a temperature of about 25° C. with shaking. Reactions were terminated by rapid filtration onto 96-well Unifilter GF/B filter plates (Perkin Elmer, Shelton, Conn.) using a 96-well tissue harvester (Packard) and followed by three filtration washes with 200 μl ice-cold binding buffer (10 mM NaH2PO4, 10 mM Na2HPO4, pH 7.4). Filter plates were subsequently dried at 50° C. for 2-3 hours. Fifty μl/well scintillation cocktail (Perkin Elmer, Shelton, Conn.) was added and plates were counted in a Packard Top-Count for 1 min/well.
κ GTP EC50 is the concentration of a compound providing 50% of the maximal response for the compound at a κ receptor.
κ GTP Emax (%) is the maximal effect elicited by a compound relative to the effect elicited by U69,593.
In TABLE 3, binding affinity of certain Compounds of the Invention to the μ- and κ-opioid receptors was determined as described above. In TABLE 4, activity response of certain Compounds of the Invention to the μ- and κ-opioid receptors was determined as described above for functional assays using HEK-293 cells. In TABLE 5, activity response of certain Compounds of the Invention to the μ- and κ-opioid receptors was determined as described above using U-2 OS cells.

Some results are limits rather than exact numbers.

The term EC50 denotes the concentration needed to bring the measured effect to its halfway point. In general, Emax refers to the size of the effect at its maximum, as opposed to the concentration needed. Turning to `CC[C@H](C)C(=O)N[C@H]1C[C@@]2(O)[C@H]3Cc4ccc(O)cc4[C@@]2(CCN3CC2CC2)CC1=O` [Compound 37, (S)-N-((4bR,7S,8aS,9R)-11-(cyclopropylmethyl)-3,8a-dihydroxy-6-oxo-6,7,8,8a,9,10-hexahydro-5H-9,4b-(epiminoethano)phenanthren-7-yl)-2-methylbutanamide], at μ-opioid receptors, the half-maximal effective concentration (EC50) was over 200000 nM and the Emax came to 6 ± 1.53%. Besides, on κ opioid receptor, the EC50 was 42.1 ± 7.56 nM and the Emax was 71.3 ± 5.7%.
On to `CC(C)C(=O)N[C@H]1C[C@@]2(O)[C@H]3Cc4ccc(O)cc4[C@@]2(CCN3CC2CC2)CC1=O` [Compound 27, N-((4bR,7S,8aS,9R)-11-(cyclopropylmethyl)-3,8a-dihydroxy-6-oxo-6,7,8,8a,9,10-hexahydro-5H-9,4b-(epiminoethano)phenanthren-7-yl)isobutyramide], for which the figures for the EC50 on μ-opioid receptors and on κ opioid receptor were over 200000 nM and 24.7 ± 3.18 nM, respectively. Besides, the figures for the maximum response (Emax) on μ-opioid receptors and at κ opioid receptor were 8 ± 2.12% and 92.7 ± 3.18%, respectively.
As for `COc1ccc2c(c1)[C@]13CCN(C)[C@H](C2)[C@]1(O)C[C@H](CC(=O)N1CCCC1)C(=O)C3` [Compound 77, (4bR,7R,8aS,9R)-8a-hydroxy-3-methoxy-11-methyl-7-(2-oxo-2-(pyrrolidin-1-yl)ethyl)-8,8a,9,10-tetrahydro-5H-9,4b-(epiminoethano)phenanthren-6(7H)-one], on μ-opioid receptors, the EC50 was found to be 17600 ± 3650 nM and the Emax came out at 77 ± 2.08%. At κ opioid receptor, the EC50 was over 200000 nM and the Emax was found to be 49 ± 9.45%.
The like results for `CC(C)CC(=O)N[C@H]1C[C@@]2(O)[C@H]3Cc4ccc(O)cc4[C@@]2(CCN3CC2CC2)CC1=O` [Compound 33, N-((4bR,7S,8aS,9R)-11-(cyclopropylmethyl)-3,8a-dihydroxy-6-oxo-6,7,8,8a,9,10-hexahydro-5H-9,4b-(epiminoethano)phenanthren-7-yl)-3-methylbutanamide] were, in that order, over 200000 nM, 2.5%, 36.1 ± 3.14 nM and 52 ± 4.93%.
The like results for `CCOC(=O)C[C@H]1C[C@@]2(O)[C@H]3Cc4ccc(OC)cc4[C@@]2(CCN3C)CC1=O` [Compound 59, ethyl 2-((4bR,7R,8aS,9R)-8a-hydroxy-3-methoxy-11-methyl-6-oxo-6,7,8,8a,9,10-hexahydro-5H-9,4b-(epiminoethano)phenanthren-7-yl)acetate] were, in that order, 11500 ± 903 nM, 100 ± 4.62%, over 200000 nM and 59 ± 1.53%.
Taken in the same sequence, the figures for `CN1CC[C@]23CC(=O)[C@@H](CC(=O)N4CCC(O)CC4)C[C@@]2(O)[C@H]1Cc1ccc(O)cc13` [Compound 81, (4bR,7R,8aS,9R)-3,8a-dihydroxy-7-(2-(4-hydroxypiperidin-1-yl)-2-oxoethyl)-11-methyl-8,8a,9,10-tetrahydro-5H-9,4b-(epiminoethano)phenanthren-6(7H)-one] were 1000 ± 276 nM, 84.3 ± 3.84%, 6510 ± 1190 nM and 34 ± 2.65%.
Turning to `O=C(N[C@H]1C[C@@]2(O)[C@H]3Cc4ccc(O)cc4[C@@]2(CCN3CC2CC2)CC1=O)c1ccccc1` [Compound 36, N-((4bR,7S,8aS,9R)-11-(cyclopropylmethyl)-3,8a-dihydroxy-6-oxo-6,7,8,8a,9,10-hexahydro-5H-9,4b-(epiminoethano)phenanthren-7-yl)benzamide], the EC50 amounted to 12.7 ± 2.92 nM at μ-opioid receptors and 4.28 ± 0.6 nM on κ opioid receptor. Moreover, the Emax at μ-opioid receptors is 20.3 ± 0.33%; on κ opioid receptor it was 99 ± 4.73%.
In the case of `COc1ccc2c(c1)[C@]13CCN(C)[C@H](C2)[C@]1(O)C[C@H](CC(=O)N1CCCCC1)C(=O)C3` [Compound 76, (4bR,7R,8aS,9R)-8a-hydroxy-3-methoxy-11-methyl-7-(2-oxo-2-(piperidin-1-yl)ethyl)-8,8a,9,10-tetrahydro-5H-9,4b-(epiminoethano)phenanthren-6(7H)-one], the EC50 was 16700 ± 2270 nM at μ-opioid receptors and over 200000 nM at κ opioid receptor. Besides, the Emax at μ-opioid receptors is 61.7 ± 1.86%; on κ opioid receptor, 47.7 ± 2.19%.
The like results for `COc1ccc2c(c1)[C@]13CCN(C)[C@H](C2)[C@]1(O)C[C@H](CCOCc1ccccc1)C(=O)C3` [Compound 50, (4bR,7S,8aS,9R)-7-(2-(benzyloxy)ethyl)-8a-hydroxy-3-methoxy-11-methyl-8,8a,9,10-tetrahydro-5H-9,4b-(epiminoethano)phenanthren-6(7H)-one] were, in that order, 148 ± 10.4 nM, 7900 ± 707 nM, 102 ± 1.67% and 74 ± 5.29%.
As to `CCC(C)C[C@H]1C[C@@]2(O)[C@H]3Cc4ccc(O)cc4[C@@]2(CCN3CC2CC2)CC1=O` (stereo partly drawn) [Compound 66, (4bR,7S,8aS,9R)-11-(cyclopropylmethyl)-3,8a-dihydroxy-7-(2-methylbutyl)-8,8a,9,10-tetrahydro-5H-9,4b-(epiminoethano)phenanthren-6(7H)-one], the EC50 on μ-opioid receptors is over 200000 nM; at κ opioid receptor, 7.57 ± 1.14 nM. The figures for the Emax at μ-opioid receptors and at κ opioid receptor were 2.5% and 102 ± 1.33%, respectively.
Regarding `CC(C)CCCC(=O)N[C@H]1C[C@@]2(O)[C@H]3Cc4ccc(O)cc4[C@@]2(CCN3CC2CC2)CC1=O` [Compound 31, N-((4bR,7S,8aS,9R)-11-(cyclopropylmethyl)-3,8a-dihydroxy-6-oxo-6,7,8,8a,9,10-hexahydro-5H-9,4b-(epiminoethano)phenanthren-7-yl)-5-methylhexanamide], the figures for the EC50 at μ-opioid receptors and on κ opioid receptor were 9.65 ± 0.22 nM and 2.59 ± 0.14 nM, respectively. Also, the Emax came to 73.7 ± 2.6% at μ-opioid receptors and 90.7 ± 6.57% at κ opioid receptor.
The like results for `CCC(=O)N[C@H]1C[C@@]2(O)[C@H]3Cc4ccc(O)cc4[C@@]2(CCN3CC2CC2)CC1=O` [Compound 29, N-((4bR,7S,8aS,9R)-11-(cyclopropylmethyl)-3,8a-dihydroxy-6-oxo-6,7,8,8a,9,10-hexahydro-5H-9,4b-(epiminoethano)phenanthren-7-yl)propionamide] were, in that order, over 200000 nM, 14.6 ± 1.86 nM, 7.25 ± 1.89% and 98.7 ± 5.21%.
As for `COc1ccc2c(c1)[C@]13CCN(C)[C@H](C2)[C@]1(O)C[C@H](CC(=O)O)C(=O)C3` [Compound 60, 2-((4bR,7R,8aS,9R)-8a-hydroxy-3-methoxy-11-methyl-6-oxo-6,7,8,8a,9,10-hexahydro-5H-9,4b-(epiminoethano)phenanthren-7-yl)acetic acid], on κ opioid receptor, the concentration giving a half-maximal response (EC50) was determined as 14900 ± 1320 nM and the Emax was found to be 84.3 ± 0.67%.
